From ChEMBL document CHEMBL3045609, “Synthesis and fungicidal activity of tubulin polymerisation promoters. Part 1: pyrido[2,3-b]pyrazines” (2010)
Converted amounts (≈) assume the structure as drawn.

Columns and labels:
Assay type in all cases: functional
[1] = test system: Pyricularia grisea; experiment: Antifungal activity against Magnaporthe grisea infected 3 weeks old rice plant assessed as reduction of diseased leaf area treated 2 days before infection measured after 6 days
[2] = test system: Zymoseptoria tritici; experiment: Antifungal activity against Zymoseptoria tritici infected 2 weeks old wheat plant assessed as reduction of diseased leaf area treated 1 day before infection measured after 16 to 18 days
[3] = test system: Puccinia triticina; experiment: Antifungal activity against Puccinia triticina infected 2 weeks old wheat plant assessed as reduction of diseased leaf area treated 1 day before infection measured after 11 days

Structure (SMILES) | EC80 [1] | EC80 [2] | EC80 [3]
COC(=O)[C@@H](Nc1c(-c2c(F)cc(F)cc2F)c(F)nc2nccnc12)C(C)C | 57 µg/mL (≈ 140 µM) | 7 µg/mL (≈ 17.1 µM) | < 6 µg/mL
C=CCOC(=O)[C@@H](Nc1c(-c2c(F)cc(F)cc2F)c(F)nc2nccnc12)C(C)C | 110 µg/mL (≈ 253 µM) | 21 µg/mL (≈ 48.3 µM) | 31 µg/mL (≈ 71.4 µM)
CC(C)[C@@H](C)Nc1c(-c2c(F)cc(F)cc2F)c(F)nc2nccnc12 | 11 µg/mL (≈ 30.2 µM) | < 2 µg/mL | < 6 µg/mL
CC(C)[C@@H](C)Nc1c(-c2c(F)cc(F)cc2F)c(Cl)nc2nccnc12 | > 200 µg/mL | 47 µg/mL (≈ 123 µM) | 77 µg/mL (≈ 202 µM)
COc1nc2nccnc2c(N[C@H](C)C(C)C)c1-c1c(F)cc(F)cc1F | 100 µg/mL (≈ 266 µM) | 32 µg/mL (≈ 85 µM) | 129 µg/mL (≈ 343 µM)
CC(C)CNc1c(-c2cccc(F)c2F)c(F)nc2nccnc12 | > 200 µg/mL | 74 µg/mL (≈ 223 µM) | 157 µg/mL (≈ 472 µM)
CC(C)CNc1c(-c2cc(F)ccc2F)c(F)nc2nccnc12 | > 200 µg/mL | 80 µg/mL (≈ 241 µM) | 118 µg/mL (≈ 355 µM)
COc1nc2nccnc2c(NCC(C)C)c1-c1c(F)cc(F)cc1F | 42 µg/mL (≈ 116 µM) | 50 µg/mL (≈ 138 µM) | 35 µg/mL (≈ 96.6 µM)
COc1nc2nccnc2c(NCC(C)C)c1-c1c(F)cccc1Cl | 110 µg/mL (≈ 305 µM) | > 200 µg/mL | 134 µg/mL (≈ 371 µM)
COc1nc2nccnc2c(NCC(C)C)c1-c1ncc(Cl)cc1F | 29 µg/mL (≈ 80.2 µM) | 10 µg/mL (≈ 27.6 µM) | > 200 µg/mL
COc1nc2nccnc2c(N[C@H](C)C(C)C)c1-c1ncc(Cl)cc1Cl | 15 µg/mL (≈ 38.2 µM) | < 6 µg/mL | 26 µg/mL (≈ 66.3 µM)
COc1nc2nccnc2c(NCC(C)C)c1C#Cc1ccccc1 | > 200 µg/mL | 67 µg/mL (≈ 202 µM) | > 200 µg/mL
Fc1cc(F)c(-c2c(F)nc3nccnc3c2NCC(F)(F)F)c(F)c1 | 11 µg/mL (≈ 29.2 µM) | 16 µg/mL (≈ 42.5 µM) | 20 µg/mL (≈ 53.2 µM)
C[C@H](Nc1c(-c2c(F)cc(F)cc2F)c(F)nc2nccnc12)C(F)(F)F | 35 µg/mL (≈ 89.7 µM) | 5 µg/mL (≈ 12.8 µM) | 39 µg/mL (≈ 99.9 µM)
CCC(Nc1c(-c2c(F)cc(F)cc2F)c(F)nc2nccnc12)C(F)(F)F (configuration not stated) | 10 µg/mL (≈ 24.7 µM) | < 2 µg/mL | 10 µg/mL (≈ 24.7 µM)
Fc1cc(F)c(-c2c(F)nc3nccnc3c2NC(C2CC2)C(F)(F)F)c(F)c1 (configuration not stated) | 104 µg/mL (≈ 250 µM) | < 6 µg/mL | 16 µg/mL (≈ 38.4 µM)
CCC(C)Nc1c(-c2c(F)cc(F)cc2F)c(F)nc2nccnc12 (configuration not stated) | 9 µg/mL (≈ 25.7 µM) | 26 µg/mL (≈ 74.2 µM) | 56 µg/mL (≈ 160 µM)
CC(C)(C)Nc1c(-c2c(F)cc(F)cc2F)c(F)nc2nccnc12 | 35 µg/mL (≈ 99.9 µM) | 19 µg/mL (≈ 54.2 µM) | > 200 µg/mL
CC(C)C(C)Nc1c(-c2c(F)cc(F)cc2F)c(F)nc2nccnc12 (configuration not stated) | 26 µg/mL (≈ 71.4 µM) | 15 µg/mL (≈ 41.2 µM) | < 20 µg/mL
